Test results from the METLIN SMRT retention time set (Domingo-Almenara et al. 2019).

Experiment: gradient 5% acetonitrile 3 min, to 50% in 2 min, to 85% in 15 min, held 3 min, 100 µL/min
Details: column: Zorbax Extend-C18 2.1 x 50 mm; eluents: water / acetonitrile, 0.1% formic acid
Outline: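 Retention time was recorded from adduct peaks, which were picked computationally and each inspected manually. Pure standards ran in mixtures of ~100 molecules on HPLC coupled to a quadrupole time-of-flight mass spectrometer, in positive and negative ionization mode, through a Zorbax Extend-C18 column (2.1 × 50 mm, 1.8 μm) at 100 μL/min. Eluents were water and acetonitrile, each with 0.1% formic acid.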

Row | RP-LC retention time [s] | Compound
1 | 916 | Cc1ccc(C)c(NC(=O)c2cc(C)nn2-c2ccccc2)c1
2 | 810 | Cc1ccc(N2CCC(NC(=O)c3ccc(N(C)C)cc3)C2=O)cc1 (centres undefined)
3 | 678 | NC(=O)C1CCN(C(=O)C2CCN(S(=O)(=O)Cc3ccc(Cl)cc3)CC2)CC1
4 | 611 | CCC1CN2C=NC(N3CCN(C(=O)c4ccccc4)CC3)=CC2=N1 (centres undefined)
5 | 753 | O=C(OCc1cccnc1)c1cn(-c2cccc(F)c2)c(=O)c2ccccc12
6 | 762 | Cc1noc(-c2nn(C)c3c2CN(C(=O)Cc2ccc(Cl)cc2)CC3)n1
7 | 722 | O=C(CC1CCN(C(=O)Nc2ccc(F)cc2F)CC1)N1CCCCC1
8 | 608 | CN1c2cc(C(=O)N3CCN(C4CCCCC4)CC3)ccc2C(=O)N2CCCCC21 (centres undefined)
9 | 604 | CCCCS(=O)(=O)N1CCN(c2nc(N3CCOCC3)nc(-n3ccnc3)n2)CC1
10 | 660 | COc1ccc(N2CCN(Cc3nc4nc(C)cc(N5CCCCC5)n4n3)CC2)cc1
11 | 596 | c1cc2c(cc1-c1noc(C3CCC3)n1)ncn2CCN1CCCC1
12 | 1010 | O=C(Nc1nnc(-c2cc(Cl)sc2Cl)o1)c1cccc(C(F)(F)F)c1
13 | 909 | COC(=O)CCc1sc(Nc2ccc(OC)cc2)nc1-c1ccc(OC)cc1
14 | 1000 | COc1ccc(-n2cc(C(=O)Nc3ccc(OC)cc3OC)nn2)cc1
15 | 682 | O=C(c1cc(-c2ccccc2)n(C2CCS(=O)(=O)C2)n1)N1CCCC1 (centres undefined)
16 | 887 | O=c1n(Cc2ccc(F)cc2)nc2c(S(=O)(=O)N3CCCCC3)cccn12
17 | 1070 | Cc1cc(Cl)ccc1S(=O)(=O)N1CCc2c(c(-c3nc(C4CC4)no3)nn2C)C1
18 | 981 | Cc1cc(C)cc(C(=O)NCc2ccc3c(c2)CCCN3C(=O)C2CCC2)c1
19 | 792 | COc1ccccc1N1CCN(CCN(C(=O)c2ccc(F)cc2)c2ccccn2)CC1
20 | 842 | Cc1noc2nc(C)n(CC(=O)NC(C)CCc3ccccc3)c(=O)c12 (centres undefined)
21 | 894 | Cc1ccc(Cn2c(N3CCCC(C(=O)NCC4CC4)C3)nc3ccsc3c2=O)cc1 (centres undefined)
22 | 855 | O=C(Nc1ccc2c(c1)CCC(=O)N2Cc1ccccc1)c1ccccc1C(F)(F)F

Row | RP-LC retention time [s] | Compound
23 | 990 | CCCn1ccc2sc(C)c(C(=O)NCc3cccc(Cl)c3)c2c1=O
24 | 645 | COc1ccccc1N1CCN(c2ncnc3c2CCC3)CC1
25 | 618 | Cc1noc(C)c1S(=O)(=O)N1CC(c2nc(-c3ccncc3)nn2C)C1
26 | 1360 | Cc1ccc(C)c(CNS(=O)(=O)c2cc(-c3nc(C(C)(C)C)cs3)cs2)c1
27 | 949 | CCOc1ccc(-c2csc(Nc3ccc(C)cn3)n2)cc1
28 | 650 | CN(C)c1ncncc1N1CCC(C(=O)N2CCN(c3ccccc3F)CC2)CC1
29 | 580 | Cc1sc2ccn(C)c(=O)c2c1C(=O)NCc1ccc(N2CCCCC2)cc1
30 | 653 | Cc1ccn2c(NC(=O)c3ccccc3F)c(-c3ccccc3)nc2c1
31 | 654 | O=C(Cc1csc(NC(=O)c2cnccn2)n1)NCCc1c[nH]c2ccccc12
32 | 825 | O=C(C1=CN(c2cccc(F)c2)c2cc(Cl)ccc2S1(=O)=O)N1CCOCC1
33 | 950 | Cc1ccc(C)c(CNC(=O)c2nnc(-c3ccc(S(=O)(=O)N(C)C)cc3)o2)c1
34 | 645 | NC(=O)c1ncn2c(=O)n(CCCl)nnc12
35 | 686 | O=S(=O)(c1cccc(F)c1)N1CC(c2nc(CCOCC3CCOCC3)no2)C1
36 | 789 | O=C(c1cc(Sc2cccc(Cl)c2)nc2ccccc12)N1CCN(c2ccccn2)CC1
37 | 745 | Cc1ccc(C)c(NC(=O)N2CCCN(c3ccc(=O)n(-c4ccccc4)n3)CC2)c1
38 | 586 | CCNc1cc(N2CCCC(CCC(=O)N3CCOCC3)C2)ncn1 (centres undefined)
39 | 834 | CC(C(=O)Nc1ccc(F)cc1)C1CCN(C(=O)Nc2ccc(F)cc2)CC1 (centres undefined)
40 | 1090 | Cc1ccc(NC(=O)c2cn(-c3cc(-c4nc(C5CC5)no4)ccn3)cn2)c(C)c1
41 | 739 | COCc1nncn1C1CCN(S(=O)(=O)c2ccc(F)c(Cl)c2)CC1
42 | 763 | CCN1CCCn2cc(S(=O)(=O)Nc3ccc(Cl)cc3F)cc2C1=O
43 | 734 | Cc1c(Cl)cccc1-c1ccc(CNCC2CCCO2)o1 (centres undefined)
44 | 720 | O=c1cc(-c2ccccc2)oc2c(O)c(O)ccc12

Row | RP-LC retention time [s] | Compound
45 | 639 | CC(=O)N1CCC2(CC1)OC(=O)C(C)=C2C(=O)NCCCN1CCN(c2cc(C)ccc2C)CC1
46 | 576 | CCCC1c2nccn2CCCN1C(=O)c1c(C)noc1C (centres undefined)
47 | 792 | O=C(Cc1ccc(F)cc1)N1CCC2(CC1)N=C(c1ccccc1)NO2
48 | 840 | CN1c2cc(C(=O)N3CCN(c4ccc(F)cc4)CC3)ccc2C(=O)N2CCCCC21 (centres undefined)
49 | 630 | COc1ccc(-c2cn3c(CC(=O)Nc4ccc(S(N)(=O)=O)cc4)csc3n2)cc1OC
50 | 663 | O=S(=O)(c1cccn2c(SCc3ccncc3)nnc12)N1CCN(c2ccc(F)cc2)CC1
51 | 965 | COc1c(C(=O)NC2CC2)sc2ccc(Cl)cc12
52 | 656 | COc1ccc(NC(=O)c2nc(N3CCCC3)c3c(C)cc(C)nc3n2)cc1
53 | 676 | Cc1nnc2ccc(NC(C)C)nn12
54 | 634 | Cc1cc(C(F)(F)F)nn1CC(=O)NCCn1c(C)cnc1C1CCC1
55 | 1120 | COCCCn1c(=O)c2ccccc2n(Cc2nc(-c3ccc(C)c(C)c3)no2)c1=O
56 | 940 | O=C(NCc1noc(COc2ccccc2)n1)c1ccc(-c2noc(C3CC3)n2)cc1
57 | 677 | COc1cc(NC(=O)N2CCCC2c2nncn2C2CCCC2)cc(OC)c1 (centres undefined)
58 | 749 | CCn1cc(-c2ccccc2)cc1C(=O)NC(C)c1ccccn1 (centres undefined)
59 | 996 | CCc1ccc(NS(=O)(=O)c2ccc(-c3nnc(C4CCC4)o3)o2)cc1
60 | 660 | Cc1ccn2cc(-c3ccc(NC(=O)c4ccc([N+](=O)[O-])cc4Cl)cc3)nc2n1
61 | 681 | CCc1nc2c(c(=O)n1CC(=O)Nc1cc(C)ccc1OC)CN(Cc1ccccc1)CC2
62 | 872 | Cn1ncc(Br)c1C(=O)N1CCCC1c1ccccc1F (centres undefined)
63 | 1020 | Cc1ccccc1OCc1nc(-c2cccc(-c3ccn[nH]3)c2)no1
64 | 649 | Cc1onc(C(=O)N2CCc3c(c(-c4nncn4C)nn3C)C2)c1Cn1cc(Cl)cn1
65 | 815 | CCn1nc(C)n2cc(S(=O)(=O)NCc3ccc(C)o3)cc2c1=O
66 | 708 | CN(C)CCn1nnc2cc(-c3noc(-c4cccc(Cl)c4)n3)ccc21

Row | RP-LC retention time [s] | Compound
67 | 666 | CCNc1cc(N2CCC(CCC(=O)NCc3cc(F)ccc3F)CC2)ncn1
68 | 742 | CCNC(=O)N1CCc2c(c(-c3nc(Cc4ccccc4)no3)nn2C)C1
69 | 672 | COc1cc(-c2nc3ncccn3c2Nc2cc(C)ccc2C)ccc1O
70 | 786 | Cc1ccc(-c2ncccc2CNS(=O)(=O)c2ccc(Br)s2)cc1
71 | 700 | Cc1ccn2c(NC(=O)c3ccc(Cl)c([N+](=O)[O-])c3)c(-c3ccccc3)nc2c1
72 | 615 | CCOc1ccc(C(=O)N2CCN(c3nc(CN4CCOCC4)cs3)CC2)cc1
73 | 774 | O=C(Cn1cc(-c2nnco2)c2ccccc21)NCc1cccc(Br)c1
74 | 617 | CCOc1ccc(N2CC(NC(=O)NCCc3ccc(S(N)(=O)=O)cc3)CC2=O)cc1 (centres undefined)
75 | 752 | O=C(CCc1nc2cccnc2n1Cc1cccs1)NCCc1c[nH]c2ccccc12
76 | 654 | COc1ccc(CSc2ncnc3nc[nH]c23)cc1
77 | 839 | COCCN(CC(=O)N1CCc2sccc2C1COc1ccc(Cl)cc1)C(=O)COC (centres undefined)
78 | 947 | Cc1csc(-c2cc(S(=O)(=O)Nc3ccc(Cl)cc3)cn2CC(=O)N2CCCC2)n1
79 | 969 | CCOC(=O)c1cccc(N2C=C(C#N)S(=O)(=O)c3ccc(C)cc32)c1
80 | 872 | CCN1CCn2cc(S(=O)(=O)N3CCN(c4cccc(Cl)c4)CC3)cc2C1=O
81 | 674 | CCN1C(=O)C2CCC(=O)N2c2ccc(C(=O)NCc3ccco3)cc21 (centres undefined)
82 | 737 | N#Cc1ccc(S(=O)(=O)N2CCC(c3cc(N)on3)CC2)cc1
83 | 674 | CCN(CC)c1ccc(NC(=O)Cn2cc3c(n2)CCCCC3)c(C)c1
84 | 1230 | Cc1ccc(S(=O)(=O)N2CCCC2c2nc(-c3ccc(F)cc3)no2)cc1Cl (centres undefined)
85 | 1030 | CCC(C)c1ccc(-c2csc(NC(C)=O)n2)cc1 (centres undefined)
86 | 566 | COc1nn(C)cc1C(=O)Nc1cccc(-c2cn3c(n2)SCC3)c1
87 | 995 | CCCc1noc(-c2cccnc2N2CCCN(C(=O)Nc3cc(C)ccc3C)CC2)n1
88 | 1170 | Cc1nc(C2CC23CCN(S(=O)(=O)c2c(C)c(C)cc(C)c2C)CC3)no1 (centres undefined)

Row | Compound | RP-LC retention time [s]
89 | O=C(COc1ccccc1)N1[C@H]2CC[C@@H]1c1cnc(-c3ccccc3)nc1C2 | 952
